US12559529B2, “NPY2 receptor agonists” (Boehringer Ingelheim International GmbH, priority 2019, dated 2026)
*1 amine or outer side, *2 acyl side, *3 side chain or, on linkers, in order; H or OH if unused. Where a SMILES comes first, the peptide text is derived from it. Side-chain parts run from the residue outwards. The star is where a group is joined. C18 diacid = O=C(O)CCCCCCCCCCCCCCCCC(=O)*; γGlu = O=C(O)[C@H](CCC(=O)[*:2])N[*:1]; Isovaleryl = CC(C)CC(=O)*; AEEA = NCCOCCOCC(=O)O

biological target: T1, Human Neuropeptide Y2 Receptor (Homo sapiens, UniProt P49146); experiment: Radioligand binding competition assay (RLB); settings: Table 3; human 125I-PYY (1-36) 0.02 nM, Y2 receptor membranes; read-out: Ki
T1 construct: purchased CHEMICON HTS066M
T1 sequence (P49146 1-381): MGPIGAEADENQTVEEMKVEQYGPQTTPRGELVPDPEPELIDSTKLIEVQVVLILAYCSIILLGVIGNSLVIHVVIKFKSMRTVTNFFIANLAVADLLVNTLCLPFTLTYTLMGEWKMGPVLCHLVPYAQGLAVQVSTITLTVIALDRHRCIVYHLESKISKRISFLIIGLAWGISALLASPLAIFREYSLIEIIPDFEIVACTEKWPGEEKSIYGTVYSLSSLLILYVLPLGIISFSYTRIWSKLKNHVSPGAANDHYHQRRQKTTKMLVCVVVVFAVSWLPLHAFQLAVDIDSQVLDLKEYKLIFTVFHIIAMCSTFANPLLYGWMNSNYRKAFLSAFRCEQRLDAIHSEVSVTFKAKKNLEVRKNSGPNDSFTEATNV
Procedure, shortened: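 IC50 values come from nonlinear regression of sigmoidal dose-response curves of filter-bound radioactivity. Peptides competed with radioligand at human Y2 receptor membranes (0.5 μg protein/well) for 2 h at room temperature in pH 7.4 HEPES buffer containing Mg2+, Ca2+ and 0.2% ovalbumin.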

Compound	Ki [nM]
CC(C)CC(=O)N[C@@H](C)C(=O)N1CCC[C@H]1C(=O)N[C@@H](CCC(=O)O)C(=O)N[C@@H](CCCCNC(=O)COCCOCCNC(=O)COCCOCCNC(=O)CC[C@H](NC(=O)CCCCCCCCCCCCCCCCC(=O)O)C(=O)O)C(=O)N1CCC[C@H]1C(=O)N1CCC[C@H]1C(=O)N[C@@H](CCC(=O)O)C(=O)N[C@@H](CCC(=O)O)C(=O)N[C@@H](C)C(=O)N[C@@H](CO)C(=O)N1CCC[C@H]1C(=O)N[C@@H](CCC(=O)O)C(=O)N[C@@H](CCC(=O)O)C(=O)N[C@@H](CC(C)C)C(=O)N[C@@H](CCC(N)=O)C(=O)N[C@@H](CCCNC(=N)N)C(=O)N[C@@H](Cc1ccc(O)cc1)C(=O)N[C@@H](Cc1ccc(O)cc1)C(=O)N[C@H](C(=O)N[C@@H](CO)C(=O)N[C@@H](CC(C)C)C(=O)N[C@@H](CCCNC(=N)N)C(=O)N[C@@H](Cc1c[nH]cn1)C(=O)N[C@@H](Cc1ccc(O)cc1)C(=O)N[C@@H](Cc1ccc(O)cc1)C(=O)N[C@@H](CC(N)=O)C(=O)N[C@@H](Cc1c[nH]c2ccccc12)C(=O)N[C@@H](CC(C)C)C(=O)N[C@H](C(=O)N[C@@H](CCCNC(=N)N)C(=O)N[C@@H](CCC(N)=O)C(=O)N[C@@H](CCCNC(=N)N)C(=O)N[C@@H](Cc1ccc(O)cc1)C(N)=O)[C@@H](C)O)C(C)C [Compound 142, N{alpha-4}-(3-methylbutanoyl)-N{epsilon-7}-[2-(2-{2-[2-(2-{2-[(4S)-4-carboxy-4-(17-carboxyheptadecanamido)butanamido]ethoxy}ethoxy)acetamido]ethoxy}ethoxy)acetamido]-[4A,7K,9P,11E,18Q,22V,28Y,30W,31L]hPYY (4-36)]	1.17
CC(C)CC(=O)N[C@@H](C)C(=O)N1CCC[C@H]1C(=O)N[C@@H](CCC(=O)O)C(=O)N[C@@H](CCCCNC(=O)COCCOCCNC(=O)COCCOCCNC(=O)CC[C@H](NC(=O)CCCCCCCCCCCCCCCCC(=O)O)C(=O)O)C(=O)N[C@@H](C)C(=O)N[C@@H](CCC(=O)O)C(=O)N[C@@H](CCC(=O)O)C(=O)N[C@@H](CC(=O)O)C(=O)N[C@@H](C)C(=O)N[C@@H](CO)C(=O)N1CCC[C@H]1C(=O)N[C@@H](CCC(=O)O)C(=O)N[C@@H](CCC(=O)O)C(=O)N[C@@H](CC(C)C)C(=O)N[C@@H](CCC(N)=O)C(=O)N[C@@H](CCC(N)=O)C(=O)N[C@@H](Cc1ccc(O)cc1)C(=O)N[C@@H](Cc1ccc(O)cc1)C(=O)N[C@H](C(=O)N[C@@H](CO)C(=O)N[C@@H](CC(C)C)C(=O)N[C@@H](CCCNC(=N)N)C(=O)N[C@@H](Cc1c[nH]cn1)C(=O)N[C@@H](Cc1ccc(O)cc1)C(=O)N[C@@H](Cc1ccc(O)cc1)C(=O)N[C@@H](CC(N)=O)C(=O)N[C@@H](Cc1c[nH]c2ccccc12)C(=O)N[C@@H](CC(C)C)C(=O)N[C@H](C(=O)N[C@@H](CCCNC(=N)N)C(=O)N[C@@H](CCC(N)=O)C(=O)N[C@@H](CCCNC(=N)N)C(=O)N[C@@H](Cc1ccc(O)cc1)C(N)=O)[C@@H](C)O)C(C)C [Compound 144, N{alpha-4}-(3-methylbutanoyl)-N{epsilon-7}-[2-(2-{2-[2-(2-{2-[(4S)-4-carboxy-4-(17-carboxyheptadecanamido)butanamido]ethoxy}ethoxy)acetamido]ethoxy}ethoxy)acetamido]-[4A,7K,8A,9E,18Q,19Q,22V,28Y,30W,31L]hPYY (4-36)] (Isovaleryl-APEK([AEEA-AEEA-γGlu-C18 diacid])AEEDASPEELQQYYVSLRHYYNWLTRQRY-NH2)	8.92
CC[C@H](C)[C@H](NC(=O)[C@H](CCC(=O)O)NC(=O)[C@H](CCC(=O)O)NC(=O)[C@@H]1CCCN1C(=O)[C@H](CO)NC(=O)[C@H](CO)NC(=O)[C@H](CC(=O)O)NC(=O)[C@H](CCC(=O)O)NC(=O)[C@H](CCC(=O)O)NC(=O)[C@@H]1CCCN1C(=O)[C@H](CCCCNC(=O)COCCOCCNC(=O)COCCOCCNC(=O)CC[C@H](NC(=O)CCCCCCCCCCCCCCCCC(=O)O)C(=O)O)NC(=O)[C@H](CCC(=O)O)NC(=O)[C@@H]1CCCN1C(=O)[C@H](C)NC(=O)CC(C)C)C(=O)N[C@@H](CCC(N)=O)C(=O)N[C@@H](CCCNC(=N)N)C(=O)N[C@@H](Cc1ccc(O)cc1)C(=O)N[C@@H](Cc1ccc(O)cc1)C(=O)N[C@H](C(=O)N[C@@H](CO)C(=O)N[C@@H](CC(C)C)C(=O)N[C@@H](CCCNC(=N)N)C(=O)N[C@@H](Cc1c[nH]cn1)C(=O)N[C@@H](Cc1ccc(O)cc1)C(=O)N[C@@H](Cc1ccc(O)cc1)C(=O)N[C@@H](CC(N)=O)C(=O)N[C@@H](Cc1c[nH]c2ccccc12)C(=O)N[C@@H](CC(C)C)C(=O)N[C@H](C(=O)N[C@@H](CCCNC(=N)N)C(=O)N[C@@H](CCC(N)=O)C(=O)N[C@@H](CCCNC(=N)N)C(=O)N[C@@H](Cc1ccc(O)cc1)C(N)=O)[C@@H](C)O)C(C)C [Compound 145, N{alpha-4}-(3-methylbutanoyl)-N{epsilon-7}-[2-(2-{2-[2-(2-{2-[(4S)-4-carboxy-4-(17-carboxyheptadecanamido)butanamido]ethoxy}ethoxy)acetamido]ethoxy}ethoxy)acetamido]-[4A,7K,9E,12S,17I,18Q,22V,28Y,30W,31L]hPYY (4-36)]	1.55
CC(C)CC(=O)N[C@@H](C)C(=O)N1CCC[C@H]1C(=O)N[C@@H](CCC(=O)O)C(=O)N[C@@H](CCCCNC(=O)COCCOCCNC(=O)COCCOCCNC(=O)CC[C@H](NC(=O)CCCCCCCCCCCCCCCCC(=O)O)C(=O)O)C(=O)N1CCC[C@H]1C(=O)N[C@@H](CCC(=O)O)C(=O)N[C@@H](CCC(=O)O)C(=O)N[C@@H](CCC(=O)O)C(=O)N[C@@H](C)C(=O)N[C@@H](CO)C(=O)N1CCC[C@H]1C(=O)N[C@@H](CCC(=O)O)C(=O)N[C@@H](CCC(=O)O)C(=O)N[C@@H](CC(C)C)C(=O)N[C@@H](CCC(N)=O)C(=O)N[C@@H](CCCNC(=N)N)C(=O)N[C@@H](Cc1ccc(O)cc1)C(=O)N[C@@H](Cc1ccc(O)cc1)C(=O)N[C@H](C(=O)N[C@@H](CO)C(=O)N[C@H](C(=O)N[C@@H](CCCNC(=N)N)C(=O)N[C@@H](Cc1c[nH]cn1)C(=O)N[C@@H](Cc1ccc(O)cc1)C(=O)N[C@@H](Cc1ccc(O)cc1)C(=O)N[C@@H](CC(N)=O)C(=O)N[C@@H](Cc1c[nH]c2ccccc12)C(=O)N[C@@H](CC(C)C)C(=O)N[C@H](C(=O)N[C@@H](CCCNC(=N)N)C(=O)N[C@@H](CCC(N)=O)C(=O)N[C@@H](CCCNC(=N)N)C(=O)N[C@@H](Cc1ccc(O)cc1)C(N)=O)[C@@H](C)O)[C@@H](C)O)C(C)C [Compound 146, N{alpha-4}-(3-methylbutanoyl)-N{epsilon-7}-[2-(2-{2-[2-(2-{2-[(4S)-4-carboxy-4-(17-carboxyheptadecanamido)butanamido]ethoxy}ethoxy)acetamido]ethoxy}ethoxy)acetamido]-[4A,7K,9E,11E,18Q,22V,24T,28Y,30W,31L]hPYY (4-36)] (Isovaleryl-APEK([AEEA-AEEA-γGlu-C18 diacid])PEEEASPEELQRYYVSTRHYYNWLTRQRY-NH2)	5.05
CC(C)CC(=O)N[C@@H](C)C(=O)N1CCC[C@H]1C(=O)N[C@@H](CCC(=O)O)C(=O)N[C@@H](CCCCNC(=O)COCCOCCNC(=O)COCCOCCNC(=O)CC[C@H](NC(=O)CCCCCCCCCCCCCCCCC(=O)O)C(=O)O)C(=O)N1CCC[C@H]1C(=O)N[C@@H](CCC(=O)O)C(=O)N[C@@H](CCC(=O)O)C(=O)N[C@@H](CC(=O)O)C(=O)N[C@@H](C)C(=O)N[C@@H](CO)C(=O)N1CCC[C@H]1C(=O)N[C@@H](CCC(=O)O)C(=O)N[C@@H](CCC(=O)O)C(=O)N[C@H](C(=O)N[C@@H](CCC(N)=O)C(=O)N[C@@H](CCCCN)C(=O)N[C@@H](Cc1ccc(O)cc1)C(=O)N[C@@H](Cc1ccc(O)cc1)C(=O)N[C@H](C(=O)N[C@@H](CO)C(=O)N[C@@H](CC(C)C)C(=O)N[C@@H](CCCNC(=N)N)C(=O)N[C@@H](Cc1c[nH]cn1)C(=O)N[C@@H](Cc1ccc(O)cc1)C(=O)N[C@@H](Cc1ccc(O)cc1)C(=O)N[C@@H](CC(N)=O)C(=O)N[C@@H](Cc1c[nH]c2ccccc12)C(=O)N[C@@H](CC(C)C)C(=O)N[C@H](C(=O)N[C@@H](CCCNC(=N)N)C(=O)N[C@@H](CCC(N)=O)C(=O)N[C@@H](CCCNC(=N)N)C(=O)N[C@@H](Cc1ccc(O)cc1)C(N)=O)[C@@H](C)O)C(C)C)[C@@H](C)O [Compound 147, N{alpha-4}-(3-methylbutanoyl)-N{epsilon-7}-[2-(2-{2-[2-(2-{2-[(4S)-4-carboxy-4-(17-carboxyheptadecanamido)butanamido]ethoxy}ethoxy)acetamido]ethoxy}ethoxy)acetamido]-[4A,7K,9E,17T,18Q,19K,22V,28Y,30W,31L]hPYY (4-36)]	1.19
